Tests used:
[1] = biological target: T1, EcDsbA (Escherichia coli, UniProt P0AEG4); assay: waterLOGSY ligand-detected NMR binding; conditions: compound 500 µM, unlabelled EcDsbA 10 µM, 298 K
T1 construct: made in house; protein recovered from the periplasm of the expressing cells
Description: (§1) To validate the binding of benzofuran analogues, three ligand-detected NMR methods, saturation-transfer difference (STD), Carr–Purcell–Meiboom–Gill (CPMG), and water–ligand observed via gradient spectroscopy (waterLOGSY), were employed to detect protein-ligand binding between the benzofurans and EcDsbA (Figure 2C). These experiments were designed as a primary screening tool to select analogues to undergo further affinity evaluation and prioritise compounds for crystal soaking. […] In a good agreement with this finding, eight out of nine benzofurans that passed all three ligand-detected experiments have their co-crystal structures successfully solved; in contrast, five compounds that failed two ligand-detected experiments only have one co-structure solved (Table 2).
(§2) For ligand-detected NMR spectroscopy, two samples (compound alone and compound + protein) were prepared for each compound. Unlabelled EcDsbA was prepared at 10 µM in a buffer of 50 mM sodium phosphate, pH 6.8, 25 mM NaCl, 100 µM 4,4-dimethyl 4-silapentane-1-sulfonic acid (DSS), and 10% ^2H2O. Compound was added to the protein sample to achieve final concentration of 500 µM (2% ^2H6-DMSO). ^1H 1D spectrum was acquired for each compound at 500 µM as a reference spectrum. All ligand-detected NMR experiments (STD, CPMG, and waterLOGSY) were acquired at 298 K on a Bruker Avance III 600 MHz NMR spectrometer equipped with a 5 mm TXI CryoProbe (Bruker, Billerica, MA, USA). STD spectra were acquired with 3 s of saturation at 1 ppm (on-resonance) and 33.3 ppm (off-resonance). WaterLOGSY spectra were acquired for compound alone and compound + protein with a 0.52 s acquisition time, 3 s relaxation delay, and 3 s Nuclear Overhauser effect (NOE) mixing time. CPMG spectra for compound alone and compound + protein were acquired with a constant spin echo delay of 1 ms and spin-lock period of 350 ms. The data was analysed using Topspin3.5 (Bruker) and DSS was used to reference the spectra.

[2] = biological target: T1, EcDsbA; assay: CPMG ligand-detected NMR binding; conditions: compound 500 µM, unlabelled EcDsbA 10 µM, 298 K, spin-lock 350 ms
Description: as §1, §2

[3] = biological target: T1, EcDsbA; assay: STD ligand-detected NMR binding; conditions: compound 500 µM, unlabelled EcDsbA 10 µM, 298 K
Description: as §1, §2

[4] = biological target: T1, EcDsbA; assay: Compound soaking into EcDsbA crystals and X-ray diffraction; format: binding; conditions: crystals soaked with compound at 10 mM (5% DMSO) for 3–6 h
Description: The synthesised analogues were soaked into crystals of EcDsbA and X-ray diffraction data was collected for each analogue in order to determine their site of binding. […] The carboxy moiety of 15 was oriented towards the left-hand side of the binding groove, where more polar residues are located. The phenyl ring of the aniline moiety occupied the hydrophobic end of the binding pocket with the nitrogen atom of the amine linker positioned in close proximity to Gln35. […] Although anisidine 16 was occupying a larger region of the EcDsbA binding groove, the shift appeared to have interrupted the π-stacking interactions the benzofuran was making with the His32 side chain previously (Figure 1B and Figure S1).
EcDsbA was crystallised as previously described. Briefly, 1 µL of 30 mg/mL EcDsbA was mixed with an equal volume of crystallisation buffer (11–13% PEG8000, 5–7.5% glycerol, 1 mM CuCl2, 100 mM, sodium cacodylate pH 6.1) and equilibrated against 500 µL of reservoir buffer at 20 °C using hanging drop vapour diffusion. For compound soaking, crystals were transferred into 2 µL drops of 24% PEG8000, 22% glycerol, and 100 mM sodium cacodylate (pH 6.1) containing a compound of interest at the final concentration of 10 mM (5% DMSO) and were incubated for 3–6 h. Crystals were mounted on loops and flash-cooled in liquid nitrogen.
Datasets were collected at the Australian synchrotron on MX1 and MX2 beamlines using the Blue-Ice software (Irvine, CA, USA). MX1 beamline was equipped with an ADSC Quantum 210r detector and MX2 with an ADSC Quantum 315r detector. All datasets were indexed and integrated with iMOSFLM [32] or XDS [33]—and scaled using AIMLESS [34, 35] or SCALA [36]. Phasing was performed by molecular replacement with Phaser using the previously solved structure of EcDsbA as a search model (PDB code 1FVK). The final structure was obtained after several rounds of manual model building using Coot and refinement in phenix.refine. Structures, factors and coordinates have been deposited in the Protein Data Bank (PDB; http://www.pdb.org) under the accession codes of 6PMF, 6POQ, 6POH, 6PML, 6PVY, 6POI, and 6PVZ.

[5] = Solubility noted in the HSQC titration; format: physicochemical; conditions: HSQC titration buffer
Description: The ligand efficiency (LE) ranged from 0.15 to 0.24 kcal mol^−1 HAC^−1. […] Biophysical characterisation of 25 is illustrated in Figure 2. […] Alkyl substituents at C-6 flipped the compound orientation within the hydrophobic groove and disrupt the polar interaction between the imidazole side chain of His32 and carboxyl group of the compound present in the 25 co-structure (Figure 1C). […] It was evident in the co-crystal structure of p-anisidine 16 that the p-methoxy group had caused the benzofuran scaffold to shift further along the hydrophobic groove, possibly disrupting the π-stacking interaction with His32 and polar interactions with Gln164 (Figure 1B).

[6] = biological target: T2, 15N-labelled EcDsbA (Escherichia coli, UniProt P0AEG4); assay: 2D 1H-15N HSQC chemical shift perturbation / titration; format: binding
T2 construct: made in house; protein recovered from the periplasm of the expressing cells
T2 sequence (P0AEG4 20-208): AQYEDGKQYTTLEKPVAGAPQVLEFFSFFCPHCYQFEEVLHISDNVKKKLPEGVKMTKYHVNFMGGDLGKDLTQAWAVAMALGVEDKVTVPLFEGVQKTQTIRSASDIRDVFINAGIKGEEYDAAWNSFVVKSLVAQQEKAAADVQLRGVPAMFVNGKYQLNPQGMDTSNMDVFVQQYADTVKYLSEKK
Method: Compounds that passed at least one ligand-detected NMR experiment were further validated by 2D ^1H-^15N heteronuclear single quantum coherence (HSQC) spectroscopy. In HSQC experiments, chemical shift perturbations (CSP) of backbone amide resonances of ^15N-labelled EcDsbA were measured upon addition of compound at 1 mM. […] In accordance with the crystal structure, the majority of the residues perturbed by 1 mM of benzofuran analogues in single-point HSQCs are located around the hydrophobic groove which is an important binding site for DsbA substrates (Figure 2A). […] Eight compounds produced large enough CSP (>0.04 ppm) to enable HSQC titration and KD determination.
For the 2D ^1H-^15N-HSQC titration experiment, 100 µM of ^15N-labelled EcDsbA in a buffer of 50 mM HEPES, pH 6.8, 50 mM NaCl, 2% ^2H6-DMSO, and 10% ^2H2O, was titrated with increasing concentrations of compounds ([…], 0.125, 0.25, 0.5, and 1 mM). Data were acquired on a Bruker 600 MHz spectrometer equipped with a 5 mm TXI CryoProbe and a Bruker 700 MHz spectrometer equipped with a 5 mm TXI CryoProbe. Data was processed by Topspin3.5 (Bruker) and analysed by Sparky (T. D. Goddard and D. G. Kneller, SPARKY 3, University of California, San Francisco (UCSF)). Weighted chemical shift perturbations (CSP) that were observed upon addition of compounds to EcDsbA were calculated using an Equation (1) in [41]: (1) CSP=ΔδH^2+(0.2×ΔδN)^2 where ΔδH and ΔδN denote the change in chemical shift of amide proton and nitrogen resonances upon addition of the compound. Equilibrium dissociation constants (KD) were determined by fitting the plot of CSP against compound concentrations using one site with ligand depletion model (Equation (2)): (2) CSP=CSPmax×[(KD+Pt+Lt)−((KD+Pt+Lt)^2−4×Pt×Lt)]/2×Pt where CSP is the measured CSP at a given concentration, CSPmax is the CSP observed at the saturating concentration of compound, and Pt and Lt are the total protein and compound concentrations. The ligand efficiency (LE) is calculated using the Equation (3) in [42]: (3) LE=−ΔG/HAC=−RTln(KD)/HAC where R is gas constant (1.9858775 cal K^−1 mol^−1), T is temperature (298 K), KD is equilibrium dissociation constant, and HAC is the number of heavy (non-hydrogen) atoms.

T1 sequence (P0AEG4 20-208): as above

Compound	wLOGSY [1]	CPMG [2]	STD [3]	Crystal Structure in EcDsbA [4]	solubility [5]	melting point	Kd [6]
O=C(O)Cc1coc2cc(Nc3ccccc3)ccc12 [compound 15, 2-(6-(Phenylamino)benzofuran-3-yl)acetic acid]	Pass	Pass	Pass	Yes	poor solubility	127 to 130 °C	
O=C(Cc1ccccc1F)NC(C(=O)O)c1coc2cc(Br)ccc12 (stereo not drawn) [compound 49, 2-(6-Bromobenzofuran-3-yl)-2-(2-(2-fluorophenyl)acetamido)acetic acid]	Pass	Fail	Fail	No		209 to 211 °C	> 1000 µM
